Patent publication US11998600B2, “Enhancing the therapeutic activity of an immune checkpoint inhibitor” (MaineHealth, priority 2015, dated 2024)

Experiments:
HUVEC = assay: Cell proliferation assay, HUVEC; type: cell-based, human; settings: peptide 100 ng/ml, 24 hours; FIG. 8C
Description: HUVECs (WT, shYAP1 or control transfected) or HRMVECs were plated at 2,000 cells per well with complete EGM-2 media containing 2.0% FBS in the absence or presence of P-1, P-2 or P-C (100 ng/ml) and allowed to grow for 24 hours. Cell growth was monitored using a BrdU or MMT assay kits according to manufacturer's instructions. All assays were completed at least three times in triplicate wells.

β3-integrin = β3-integrin phosphorylation in endothelial cells attached to collagen peptides, Western blot; type: cell-based, human; settings: HUVEC, absence of growth factors; FIG. 7C
Description: Endothelial cells (HUVECs or HRMVECs) were incubated in serum free media with 1 mM MgCl2, 0.2 mM MnCl2 in the presence of a Src inhibitor, PP2, (10 μM) a P38MAPK inhibitor, SB202190 (10 μM) or vehicle only (DMSO) for 10 min at 37° C. Treated cells were then seeded on to immobilized P-1 and P-2 and lysates were collected at 15 min.
Whole cell and CAM tissue lysates were collected in RIPA buffer supplemented with 1× protease inhibitor and 1× phosphatase inhibitor and were run on polyacrylamide gels using denaturing conditions. Prior to loading the gels, 6× sample buffer was added to each of the lysates (final concentration 1×) and boiled for five minutes. Twenty to 50 μg of total protein were loaded into each lane. For detection of proteins larger than 50 kD, 10% gels were used; for proteins smaller than 50 kD 15% gels were used. […] Western blot bands were quantified using Image J software based on pixel intensity.
Because both RGD containing peptides bind αvβ3 coupled with the differential effect of these peptides on angiogenesis and inflammation, it was determined whether the RGD peptides differentially altered αvβ3-mediated signaling. […] Therefore, the differential phosphorylation of these protein kinases following the early mechanical-mediated interactions with the RGD containing collagen peptides was assessed. […]

[1] = system: chick chorioallantoic membrane (CAM); assay: Chick CAM inflammation assay, induction by RGD collagen peptides; type: in vivo; settings: chick CAM, no cortisone acetate; FIG. 5D
Description: The chick chorioallantoic membrane (CAM) assays were carried out with some modifications (19). For all experiments CAMs of 10-day-old chick embryos obtained from Charles River (North Franklin, CT) were separated from the shell membrane. Filter discs either non-treated (inflammation assays) pretreated (angiogenesis assays) with cortisone acetate (3.0 mg/ml) containing RPMI only or FGF-2 (40 ng). CAMs were either non-treated or treated topically with Mab XL313, XL166 or a non-specific control antibody (10 μg/embryo every 24 h for three consecutive treatments). […] At the end of the incubation period the embryos were sacrificed and the CAM tissues were analyzed. Angiogenesis was quantified by counting the number of angiogenic branching blood vessels within the area of the filter disc. The angiogenic index was determined by subtracting the mean number of blood vessel branch points from untreated CAMs from each experimental condition. Eight to twelve embryos were used per condition and experiments were repeated at least three times.
The effects of the soluble RGD containing collagen peptides on inflammation were examined.

Src = Src phosphorylation in endothelial cells attached to collagen peptides, Western blot; type: cell-based, human; settings: HUVEC; FIG. 7D
Description: Whole cell and CAM tissue lysates were collected in RIPA buffer supplemented with 1× protease inhibitor and 1× phosphatase inhibitor and were run on polyacrylamide gels using denaturing conditions. Prior to loading the gels, 6× sample buffer was added to each of the lysates (final concentration 1×) and boiled for five minutes. Twenty to 50 μg of total protein were loaded into each lane. […] Gels were run at 60 volts (v) until the dye front passed through the stacking gel, and then the voltage was increased to 100V for the remainder of the separation. Precision Plus protein standards (Bio-Rad) were used to visualize migration. Protein was transferred to nitrocellulose membranes using a wet tank system and blocked for 1 h using 10% non-fat dried milk in tris-buffered saline with 0.01% Tween-20 (TBS-T). […] Membranes were washed 3 times in TBS-T for five minutes. Blots were then incubated with HRP conjugated secondary antibodies (1:15000) in 1% non-fat milk in TBS-T for 1 h. Membranes were washed a second time as indicated above and exposed to chemiluminecent substrate for three minutes prior to exposure to autoradiography film in a dark room. Western blot bands were quantified using Image J software based on pixel intensity.

Sequence: QGPRGDKGE [Mab P-2]
- HUVEC growth with soluble peptide (HUVEC): significantly (P<0.05) enhanced endothelial cell growth
- increase of β3 phosphorylation, P-2 as compared to P-1 (β3-integrin): over 3 fold
- CAM inflammation following stimulation with peptide [1]: significantly (P<0.05) induced inflammation to nearly that of FGF-2 stimulation
- enhancement of Src phosphorylation, P-2 as compared to P-1 (Src): ~2 fold
